Assay: xn = mol fraction of the nth substance listed
Conditions: 100 kPa, Liquid; for viscosity: Concentric cylinders viscometry; for mass density: Vibrating tube method

CCCCCCCC(=O)OCC [ethyl octanoate] + CC(C)CO
Conditions	mass density [kg/m3]	viscosity [mPa·s]
288.15 K, x1 = 0.1001	817.82	3.229
288.15 K, x1 = 0.1999	827.81	2.537
288.15 K, x1 = 0.3	836.01	2.169
288.15 K, x1 = 0.4	843.08	1.977
288.15 K, x1 = 0.5	849.18	1.851
288.15 K, x1 = 0.5999	854.5	1.766
288.15 K, x1 = 0.6999	859.21	1.703
288.15 K, x1 = 0.7999	863.44	1.677
288.15 K, x1 = 0.9	867.3	1.677
288.15 K, x1 = 1	870.88	1.686
293.15 K, x1 = 0.1001	813.83	2.762
293.15 K, x1 = 0.1999	823.71	2.22
293.15 K, x1 = 0.3	831.83	1.921
293.15 K, x1 = 0.4	838.85	1.768
293.15 K, x1 = 0.5	844.91	1.661
293.15 K, x1 = 0.5999	850.21	1.593
293.15 K, x1 = 0.6999	854.9	1.543
293.15 K, x1 = 0.7999	859.12	1.523
293.15 K, x1 = 0.9	862.98	1.524
293.15 K, x1 = 1	866.58	1.537
298.15 K, x1 = 0.1001	809.81	2.416
298.15 K, x1 = 0.1999	819.58	1.961
298.15 K, x1 = 0.3	827.63	1.716
298.15 K, x1 = 0.4	834.6	1.592
298.15 K, x1 = 0.5	840.63	1.503
298.15 K, x1 = 0.5999	845.9	1.447
298.15 K, x1 = 0.6999	850.58	1.407
298.15 K, x1 = 0.7999	854.81	1.393
298.15 K, x1 = 0.9	858.67	1.393
298.15 K, x1 = 1	862.28	1.41
303.15 K, x1 = 0.1001	805.76	2.111
303.15 K, x1 = 0.1999	815.43	1.74
303.15 K, x1 = 0.3	823.41	1.541
303.15 K, x1 = 0.4	830.32	1.44
303.15 K, x1 = 0.5	836.32	1.364
303.15 K, x1 = 0.5999	841.57	1.321
303.15 K, x1 = 0.6999	846.25	1.289
303.15 K, x1 = 0.7999	850.48	1.278
303.15 K, x1 = 0.9	854.35	1.283
303.15 K, x1 = 1	857.98	1.298
308.15 K, x1 = 0.1001	801.68	1.854
308.15 K, x1 = 0.1999	811.24	1.554
308.15 K, x1 = 0.3	819.16	1.389
308.15 K, x1 = 0.4	826.03	1.307
308.15 K, x1 = 0.5	832	1.246
308.15 K, x1 = 0.5999	837.24	1.21
308.15 K, x1 = 0.6999	841.91	1.186
308.15 K, x1 = 0.7999	846.14	1.179
308.15 K, x1 = 0.9	850.03	1.184
308.15 K, x1 = 1	853.68	1.2
313.15 K, x1 = 0.1001	797.55	1.642
313.15 K, x1 = 0.1999	807.02	1.399
313.15 K, x1 = 0.3	814.88	1.264
313.15 K, x1 = 0.4	821.71	1.196
313.15 K, x1 = 0.5	827.66	1.148
313.15 K, x1 = 0.5999	832.89	1.119
313.15 K, x1 = 0.6999	837.56	1.1
313.15 K, x1 = 0.7999	841.8	1.096
313.15 K, x1 = 0.9	845.7	1.103
313.15 K, x1 = 1	849.37	1.118
318.15 K, x1 = 0.1001	793.38	1.453
318.15 K, x1 = 0.1999	802.76	1.254
318.15 K, x1 = 0.3	810.56	1.144
318.15 K, x1 = 0.4	817.36	1.089
318.15 K, x1 = 0.5	823.29	1.05
318.15 K, x1 = 0.5999	828.51	1.027
318.15 K, x1 = 0.6999	833.19	1.013
318.15 K, x1 = 0.7999	837.45	1.012
318.15 K, x1 = 0.9	841.37	1.02
318.15 K, x1 = 1	845.06	1.035
323.15 K, x1 = 0.1001	789.15	1.308
323.15 K, x1 = 0.1999	798.46	1.144
323.15 K, x1 = 0.3	806.21	1.052
323.15 K, x1 = 0.4	812.99	1.006
323.15 K, x1 = 0.5	818.9	0.975
323.15 K, x1 = 0.5999	824.13	0.9556
323.15 K, x1 = 0.6999	828.81	0.9463
323.15 K, x1 = 0.7999	833.08	0.9462
323.15 K, x1 = 0.9	837.02	0.9546
323.15 K, x1 = 1	840.74	0.9708

Reference: the NIST ThermoML archive (doi:10.1016/j.jct.2016.09.030)
